# Read-outs that look alike come from different tables or passages of the source.
# Assays:
# [1] = tested on: A. baumannii; test: MIC, broth microdilution, CDC/FDA Antibiotic Resistance Isolate Bank (Example 7, Tables 9, 13, 14); assay type: cell-based, Acinetobacter baumannii; settings: for MIC: read-out: MIC
# [2] = tested on: Enterobacterales; test: MIC, broth microdilution, CDC/FDA Antibiotic Resistance Isolate Bank (Example 7, Tables 8, 11, 12); assay type: cell-based; settings: for MIC: read-out: MIC
# [3] = MIC distribution, metallo-β-lactamase-producing A. baumannii, inhibitor µg/mL in parentheses
structure (smiles),measurement,setting,value
"NCC[C@H](O)C(=O)N[C@@H]1C[C@H](N)[C@@H](O[C@H]2O[C@H](CN)[C@@H](O)[C@H](O)[C@H]2O)[C@H](O)[C@H]1O[C@H]1O[C@H](CO)[C@@H](O)[C@H](N)[C@H]1O [Amikacin, amikacin]",MIC,"[1]; Acinetobacter baumannii, A. baumannii KUB No. 5567, AR Bank #70, OXA-58, OXA-100",1 µg/mL
same,MIC,"[1]; Acinetobacter baumannii, A. baumannii KUB No. 5575, AR Bank #78, OXA-71",32 µg/mL
same,MIC,"[1]; Acinetobacter baumannii, A. baumannii KUB No. 5580, AR Bank #83, OXA-23, OXA-69, NDM-1",> 64 µg/mL
same,MIC,"[1]; Acinetobacter baumannii, A. baumannii KUB No. 5585, AR Bank #88, OXA-64, NDM-1",32 µg/mL
same,MIC,"[1]; Acinetobacter baumannii, A. baumannii KUB No. 5598, AR Bank #101, OXA-24, OXA-65",64 µg/mL
same,MIC,"[1]; Acinetobacter baumannii, A. baumannii KUB No. 5599, AR Bank #102, OXA-66",> 64 µg/mL
same,MIC,"[1]; Acinetobacter baumannii, A. baumannii KUB No. 5706, AR Bank #273, OXA-23, OXA-66",> 64 µg/mL
same,MIC,"[1]; Acinetobacter baumannii, A. baumannii KUB No. 5707, AR Bank #274, OXA-66, OXA-72",16 µg/mL
same,MIC,"[1]; Acinetobacter baumannii, A. baumannii KUB No. 5708, AR Bank #275, OXA-23, OXA-66",> 64 µg/mL
same,MIC,"[1]; Acinetobacter baumannii, A. baumannii KUB No. 5709, AR Bank #276, no carbapenemase genes (-)",64 µg/mL
same,MIC,"[1]; Acinetobacter baumannii, A. baumannii KUB No. 5710, AR Bank #277, OXA-24, OXA-65",16 µg/mL
same,MIC,"[1]; Acinetobacter baumannii, A. baumannii KUB No. 5711, AR Bank #278, OXA-23, OXA-66",> 64 µg/mL
same,MIC,"[1]; Acinetobacter baumannii, A. baumannii KUB No. 5712, AR Bank #279, OXA-23, OXA-66",> 64 µg/mL
same,MIC,"[1]; Acinetobacter baumannii, A. baumannii KUB No. 5713, AR Bank #280, OXA-66",4 µg/mL
same,MIC,"[1]; Acinetobacter baumannii, A. baumannii KUB No. 5714, AR Bank #281, OXA-82",2 µg/mL
same,MIC,"[1]; Acinetobacter baumannii, A. baumannii KUB No. 5715, AR Bank #282, OXA-23, OXA-66",> 64 µg/mL
same,MIC,"[1]; Acinetobacter baumannii, A. baumannii KUB No. 5716, AR Bank #283, OXA-23, OXA-66",> 64 µg/mL
same,MIC,"[1]; Acinetobacter baumannii, A. baumannii KUB No. 5717, AR Bank #284, OXA-24, OXA-65",32 µg/mL
same,MIC,"[1]; Acinetobacter baumannii, A. baumannii KUB No. 5718, AR Bank #285, OXA-24, OXA-65",64 µg/mL
same,MIC,"[1]; Acinetobacter baumannii, KUB No. 5719, AR Bank #286",> 64 µg/mL
same,MIC,"[1]; Acinetobacter baumannii, KUB No. 5720, AR Bank #287",64 µg/mL
same,MIC,"[1]; Acinetobacter baumannii, KUB No. 5721, AR Bank #288",> 64 µg/mL
same,MIC,"[1]; Acinetobacter baumannii, KUB No. 5722, AR Bank #259",32 µg/mL
same,MIC,"[1]; Acinetobacter baumannii, KUB No. 5723, AR Bank #290",> 64 µg/mL
same,MIC,"[1]; Acinetobacter baumannii, KUB No. 5724, AR Bank #291",> 64 µg/mL
same,MIC,"[1]; Acinetobacter baumannii, KUB No. 5725, AR Bank #292",32 µg/mL
same,MIC,"[1]; Acinetobacter baumannii, KUB No. 5726, AR Bank #293",16 µg/mL
same,MIC,"[1]; Acinetobacter baumannii, KUB No. 5727, AR Bank #294",64 µg/mL
same,MIC,"[1]; Acinetobacter baumannii, KUB No. 5728, AR Bank #295",2 µg/mL
same,MIC,"[1]; Acinetobacter baumannii, KUB No. 5729, AR Bank #296",> 64 µg/mL
same,MIC,"[1]; Acinetobacter baumannii, KUB No. 5730, AR Bank #297",32 µg/mL
same,MIC,"[1]; Acinetobacter baumannii, KUB No. 5731, AR Bank #298",> 64 µg/mL
same,MIC,"[1]; Acinetobacter baumannii, KUB No. 5732, AR Bank #299",> 64 µg/mL
same,MIC,"[1]; Acinetobacter baumannii, KUB No. 5733, AR Bank #300",> 64 µg/mL
same,MIC,"[1]; Acinetobacter baumannii, KUB No. 5734, AR Bank #301",64 µg/mL
same,MIC,"[1]; Acinetobacter baumannii, KUB No. 5735, AR Bank #302",> 64 µg/mL
same,MIC,"[1]; Acinetobacter baumannii, KUB No. 5736, AR Bank #303",> 64 µg/mL
same,MIC,"[1]; Acinetobacter baumannii, KUB No. 5737, AR Bank #304",32 µg/mL
same,MIC,"[1]; Acinetobacter baumannii, KUB No. 5738, AR Bank #305",32 µg/mL
same,MIC,"[1]; Acinetobacter baumannii, KUB No. 5739, AR Bank #306",64 µg/mL
same,MIC,"[1]; Acinetobacter baumannii, KUB No. 5740, AR Bank #307",> 64 µg/mL
same,MIC,"[1]; Acinetobacter baumannii, KUB No. 5741, AR Bank #308",> 64 µg/mL
same,MIC,"[1]; Acinetobacter baumannii, KUB No. 5742, AR Bank #309",> 64 µg/mL
same,MIC,"[1]; Acinetobacter baumannii, KUB No. 5743, AR Bank #310",> 64 µg/mL
same,MIC,"[1]; Acinetobacter baumannii, KUB No. 5744, AR Bank #311",> 64 µg/mL
same,MIC,"[1]; Acinetobacter baumannii, KUB No. 5745, AR Bank #312",1 µg/mL
same,MIC,"[1]; Acinetobacter baumannii, KUB No. 5746, AR Bank #313",2 µg/mL
same,MIC50,"[1]; Acinetobacter baumannii, 55 isolates of A. baumannii, read-out: MIC50",64 µg/mL
same,MIC80,"[1]; Acinetobacter baumannii, 55 isolates of A. baumannii, read-out: MIC80",> 64 µg/mL
same,MIC90,"[1]; Acinetobacter baumannii, 55 isolates of A. baumannii, read-out: MIC90",> 64 µg/mL
same,Number of isolates at MIC 2 µg/mL,[1]; [3],2
same,Number of isolates at MIC 32 µg/mL,[1]; [3],1
same,Number of isolates at MIC >64 µg/mL,[1]; [3],1
same,MIC50,"[2]; 154 strains of Enterobacterales, read-out: MIC50",4 µg/mL
same,MIC90,"[2]; 154 strains of Enterobacterales, read-out: MIC90",> 64 µg/mL
same,MIC,"[2]; Citrobacter freundii, KUB No. 5654, AR Bank # 157",> 64 µg/mL
same,MIC,"[2]; Enterobacter cloacae, Enterobacter cloacae KUB No. 5792, AR Bank #448",16 µg/mL
same,MIC,"[2]; Enterobacter cloacae, Enterobacter cloacae KUB No. 5807, AR Bank #501",4 µg/mL
same,MIC,"[2]; Enterobacter cloacae, Enterobacter cloacae KUB No. 5808, AR Bank #502",2 µg/mL
same,MIC,"[2]; Enterobacter cloacae, Enterobacter cloacae complex, KUB No. 5661, AR Bank # 164",1 µg/mL
same,MIC,"[2]; Enterobacter cloacae, Enterobacter cloacae group, KUB No. 5629, AR Bank # 132",1 µg/mL
same,MIC,"[2]; Enterobacter cloacae, KUB No. 5529, AR Bank# 32",1 µg/mL
same,MIC,"[2]; Enterobacter cloacae, KUB No. 5535, AR Bank# 38",> 64 µg/mL
same,MIC,"[2]; Enterobacter cloacae, KUB No. 5547, AR Bank# 50",1 µg/mL
same,MIC,"[2]; Enterobacter cloacae, KUB No. 5550, AR Bank# 53",64 µg/mL
same,MIC,"[2]; Enterobacter cloacae, KUB No. 5557, AR Bank# 60",1 µg/mL
same,MIC,"[2]; Enterobacter cloacae, KUB No. 5562, AR Bank # 65",1 µg/mL
same,MIC,"[2]; Enterobacter cloacae, KUB No. 5569, AR Bank # 72",1 µg/mL
same,MIC,"[2]; Enterobacter cloacae, KUB No. 5570, AR Bank # 73",0.25 µg/mL
same,MIC,"[2]; Enterobacter cloacae, KUB No. 5590, AR Bank # 93",2 µg/mL
same,MIC,"[2]; Enterobacter cloacae, KUB No. 5660, AR Bank # 163",4 µg/mL
same,MIC,"[2]; Enterobacter cloacae, KUB No. 5761, AR Bank # 365",16 µg/mL
same,MIC,"[2]; Enterobacter cloacae, KUB No. 5762, AR Bank # 366",4 µg/mL
same,MIC,"[2]; Enterobacter cloacae, KUB No. 5763, AR Bank # 367",1 µg/mL
same,MIC,"[2]; Enterobacter cloacae, KUB No. 5778, AR Bank # 432",2 µg/mL
same,MIC,"[2]; Enterobacter cloaccae, KUB No. 5651, AR Bank # 154",8 µg/mL
same,MIC,"[2]; Enterobacter clooreae, KUB No. 5633, AR Bank # 136",2 µg/mL
same,MIC,"[2]; Escherichia coli, Escherichia coli KUB No. 5783, AR Bank #437",2 µg/mL
same,MIC,"[2]; Escherichia coli, Escherichia coli KUB No. 5794, AR Bank #450",2 µg/mL
same,MIC,"[2]; Escherichia coli, Escherichia coli KUB No. 5795, AR Bank #451",8 µg/mL
same,MIC,"[2]; Escherichia coli, Escherichia coli KUB No. 5796, AR Bank #452",1 µg/mL
same,MIC,"[2]; Escherichia coli, Escherichia coli KUB No. 5803, AR Bank #861",1 µg/mL
same,MIC,"[2]; Escherichia coli, KUB No. 5558, AR Bank # 61",16 µg/mL
same,MIC,"[2]; Escherichia coli, KUB No. 5564, AR Bank # 67",2 µg/mL
same,MIC,"[2]; Escherichia coli, KUB No. 5566, AR Bank # 69",16 µg/mL
same,MIC,"[2]; Escherichia coli, KUB No. 5574, AR Bank # 77",1 µg/mL
same,MIC,"[2]; Escherichia coli, KUB No. 5578, AR Bank # 81",2 µg/mL
same,MIC,"[2]; Escherichia coli, KUB No. 5581, AR Bank # 84",0.5 µg/mL
same,MIC,"[2]; Escherichia coli, KUB No. 5582, AR Bank # 85",1 µg/mL
same,MIC,"[2]; Escherichia coli, KUB No. 5583, AR Bank # 86",1 µg/mL
same,MIC,"[2]; Escherichia coli, KUB No. 5586, AR Bank # 89",1 µg/mL
same,MIC,"[2]; Escherichia coli, KUB No. 5601, AR Bank # 104",1 µg/mL
same,MIC,"[2]; Escherichia coli, KUB No. 5611, AR Bank # 114",1 µg/mL
same,MIC,"[2]; Escherichia coli, KUB No. 5615, AR Bank # 118",> 64 µg/mL
same,MIC,"[2]; Escherichia coli, KUB No. 5616, AR Bank # 119",> 64 µg/mL
same,MIC,"[2]; Escherichia coli, KUB No. 5625, AR Bank # 128",> 64 µg/mL
same,MIC,"[2]; Escherichia coli, KUB No. 5634, AR Bank # 137",16 µg/mL
same,MIC,"[2]; Escherichia coli, KUB No. 5646, AR Bank # 149",2 µg/mL
same,MIC,"[2]; Escherichia coli, KUB No. 5647, AR Bank # 150",0.5 µg/mL
same,MIC,"[2]; Escherichia coli, KUB No. 5648, AR Bank # 151",1 µg/mL
same,MIC,"[2]; Escherichia coli, KUB No. 5659, AR Bank # 162",1 µg/mL
same,MIC,"[2]; Escherichia coli, KUB No. 5764, AR Bank # 368",2 µg/mL
same,MIC,"[2]; Escherichia coli, KUB No. 5765, AR Bank # 369",2 µg/mL
